Test results: ChEMBL document CHEMBL1201862, “PubChem BioAssay data set” (2004)
Activity calls are given as the source filed them.

Columns and labels:
Focal adhesion kinase 1 = Focal adhesion kinase 1 (Homo sapiens, UniProt Q05397); assay type: functional;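 further: measured as one member of a kinome panel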
Ephrin type-A receptor 2 = Ephrin type-A receptor 2 (Homo sapiens, UniProt P29317); assay type: functional;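 further: EPHA2 tested as one member of a kinome-wide kinase panel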
[1] = target: Tyrosine-protein kinase ABL1 (Homo sapiens, UniProt P00519); assay type: functional
[2] = target: MAP/microtubule affinity-regulating kinase 3 (Homo sapiens, UniProt P27448); assay type: functional;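 further: MARK3 affinity measured as one member of a kinome panel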
[3] = target: Serine/threonine-protein kinase PAK 4 (Homo sapiens, UniProt O96013); assay type: functional;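 further: value obtained within a kinome profiling panel in which PAK4 was one of the panel members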
[4] = target: Tyrosine-protein kinase Srms (Homo sapiens, UniProt Q9H3Y6); assay type: functional;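 further: SRMS measured as one member of a kinome-wide kinase profiling panel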
[5] = target: Serine/threonine-protein kinase BRSK1 (Homo sapiens, UniProt Q8TDC3); assay type: functional;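 further: measured within a kinome-wide kinase panel, with the target listed as KIAA1811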
[6] = target: Testis-specific serine/threonine-protein kinase 1 (Homo sapiens, UniProt Q9BXA7); assay type: functional
Misshapen-like kinase 1 = Misshapen-like kinase 1 (Homo sapiens, UniProt Q8N4C8); assay type: functional;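 further: kinome panel screen with MINK as the panel member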
[7] = target: Serine/threonine-protein kinase PLK4 (Homo sapiens, UniProt O00444); assay type: functional;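 further: PLK4 measured as one member of a kinome-wide kinase profiling panel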
[8] = target: Glycogen synthase kinase-3 beta (Homo sapiens, UniProt P49841); assay type: functional;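 further: value comes from a broad kinome profiling panel, with GSK3B as the panel member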
[9] = target: Epidermal growth factor receptor (Homo sapiens, UniProt P00533)
[10] = target: Vascular endothelial growth factor receptor 2 (Homo sapiens, UniProt P35968); assay type: functional
[11] = target: Serine/threonine-protein kinase Nek2 (Homo sapiens, UniProt P51955); assay type: functional
[12] = target: Casein kinase I isoform delta (Homo sapiens, UniProt P48730); assay type: functional;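 further: measured as one member (CSNK1D) of a kinome panel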
[13] = target: Testis-specific serine/threonine-protein kinase 2 (Homo sapiens, UniProt Q96PF2); assay type: functional;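 further: part of the Navigating the Kinome panel, target entry STK22B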
[14] = target: Protein kinase C gamma type (Homo sapiens, UniProt P05129); assay type: functional
[15] = target: 5'-AMP-activated protein kinase catalytic subunit alpha-1 (Homo sapiens, UniProt Q13131); assay type: functional
[16] = target: Protein kinase C iota type (Homo sapiens, UniProt P41743); assay type: functional;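 further: measured within a kinome-wide kinase panel, PRKCI as panel member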
[17] = target: Serine/threonine-protein kinase pim-3 (Homo sapiens, UniProt Q86V86); assay type: functional;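 further: value obtained as one member of a broad kinase panel profiling effort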
[18] = target: Dual specificity tyrosine-phosphorylation-regulated kinase 4 (Homo sapiens, UniProt Q9NR20); assay type: functional
[19] = target: Macrophage colony-stimulating factor 1 receptor (Homo sapiens, UniProt P07333); assay type: functional;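 further: value comes from the Navigating the Kinome screening panel, CSF1R member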
[20] = target: Serine/threonine-protein kinase D2 (Homo sapiens, UniProt Q9BZL6); assay type: functional;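 further: measured against PRKD2 as one member of a kinome-wide kinase profiling panel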
[21] = target: Dual specificity tyrosine-phosphorylation-regulated kinase 1A (Homo sapiens, UniProt Q13627); assay type: functional;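 further: measured against DYRK1A as one member of a broad kinome profiling panel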
[22] = target: Serine/threonine-protein kinase pim-2 (Homo sapiens, UniProt Q9P1W9); assay type: functional;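 further: value comes from a broad kinase panel profiling study in which PIM2 was one of the panel members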
[23] = target: Mitogen-activated protein kinase 8 (Homo sapiens, UniProt P45983); assay type: functional;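 further: value comes from one member of a kinome-wide kinase profiling panel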
[24] = target: Mitogen-activated protein kinase 12 (Homo sapiens, UniProt P53778); assay type: functional;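 further: measured as one member of a kinome-wide kinase profiling panel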
[25] = target: Serine/threonine-protein kinase PAK 1 (Homo sapiens, UniProt Q13153); assay type: functional
[26] = target: Mast/stem cell growth factor receptor Kit (Homo sapiens, UniProt P10721); assay type: functional;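 further: KIT entry within a kinase panel assay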
[27] = target: Serine/threonine-protein kinase Nek4 (Homo sapiens, UniProt P51957); assay type: functional
[28] = target: BDNF/NT-3 growth factors receptor (Homo sapiens, UniProt Q16620); assay type: functional;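 further: NTRK2 measured as one member of a broad kinome-wide kinase profiling panel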
[29] = target: Mitogen-activated protein kinase 9 (Homo sapiens, UniProt P45984); assay type: functional;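 further: value from a kinome panel profiling assay, MAPK9 panel entry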
[30] = target: Tyrosine-protein kinase BTK (Homo sapiens, UniProt Q06187); assay type: functional
Aurora kinase A = Aurora kinase A (Homo sapiens, UniProt O14965); assay type: functional;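 further: value from the Navigating the Kinome kinase panel profiling, panel entry STK6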
[31] = target: Non-receptor tyrosine-protein kinase TYK2 (Homo sapiens, UniProt P29597); assay type: functional
[32] = target: 3-phosphoinositide-dependent protein kinase 1 (Homo sapiens, UniProt O15530); assay type: functional;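 further: value comes from the Navigating the Kinome panel, PDPK1 member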
[33] = target: Serine/threonine-protein kinase TAO1 (Homo sapiens, UniProt Q7L7X3); assay type: functional
[34] = target: Tyrosine-protein kinase receptor UFO (Homo sapiens, UniProt P30530); assay type: functional
[35] = target: STE20-like serine/threonine-protein kinase (Homo sapiens, UniProt Q9H2G2); assay type: functional
[36] = target: Hepatocyte growth factor receptor (Homo sapiens, UniProt P08581); assay type: functional;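 further: kinase panel profiling across the kinome, with MET as the panel member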
[37] = target: Tyrosine-protein kinase FRK (Homo sapiens, UniProt P42685); assay type: functional;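 further: FRK tested as one member of a kinome panel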
[38] = target: Proto-oncogene tyrosine-protein kinase Src (Homo sapiens, UniProt P12931); assay type: functional;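 further: SRC entry within a kinome-wide kinase profiling panel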
[39] = target: Megakaryocyte-associated tyrosine-protein kinase (Homo sapiens, UniProt P42679); assay type: functional;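 further: affinity measured as one member of a kinase panel (Navigating the Kinome) against MATK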
[40] = target: Serine/threonine-protein kinase N2 (Homo sapiens, UniProt Q16513); assay type: functional
[41] = target: Casein kinase II subunit alpha (Homo sapiens, UniProt P68400); assay type: functional
[42] = target: Tyrosine-protein kinase Fer (Homo sapiens, UniProt P16591); assay type: functional;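 further: FER tested as one member of a kinome panel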
[43] = target: Calcium/calmodulin-dependent protein kinase type 1 (Homo sapiens, UniProt Q14012); assay type: functional

Chain of Casein kinase I isoform delta (P48730 whole entry, canonical isoform): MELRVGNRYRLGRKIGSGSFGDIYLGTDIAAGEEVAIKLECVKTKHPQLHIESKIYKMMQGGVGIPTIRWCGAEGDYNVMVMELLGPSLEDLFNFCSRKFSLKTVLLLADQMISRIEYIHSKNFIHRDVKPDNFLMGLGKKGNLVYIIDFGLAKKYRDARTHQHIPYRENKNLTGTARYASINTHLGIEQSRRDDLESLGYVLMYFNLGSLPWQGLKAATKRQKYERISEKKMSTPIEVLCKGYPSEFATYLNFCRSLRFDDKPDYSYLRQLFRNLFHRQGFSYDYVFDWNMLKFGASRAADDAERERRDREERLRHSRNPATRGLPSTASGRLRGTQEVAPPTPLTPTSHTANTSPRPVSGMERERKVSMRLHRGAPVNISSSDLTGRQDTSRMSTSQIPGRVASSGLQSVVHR
Chain of Ephrin type-A receptor 2 (P29317 whole entry): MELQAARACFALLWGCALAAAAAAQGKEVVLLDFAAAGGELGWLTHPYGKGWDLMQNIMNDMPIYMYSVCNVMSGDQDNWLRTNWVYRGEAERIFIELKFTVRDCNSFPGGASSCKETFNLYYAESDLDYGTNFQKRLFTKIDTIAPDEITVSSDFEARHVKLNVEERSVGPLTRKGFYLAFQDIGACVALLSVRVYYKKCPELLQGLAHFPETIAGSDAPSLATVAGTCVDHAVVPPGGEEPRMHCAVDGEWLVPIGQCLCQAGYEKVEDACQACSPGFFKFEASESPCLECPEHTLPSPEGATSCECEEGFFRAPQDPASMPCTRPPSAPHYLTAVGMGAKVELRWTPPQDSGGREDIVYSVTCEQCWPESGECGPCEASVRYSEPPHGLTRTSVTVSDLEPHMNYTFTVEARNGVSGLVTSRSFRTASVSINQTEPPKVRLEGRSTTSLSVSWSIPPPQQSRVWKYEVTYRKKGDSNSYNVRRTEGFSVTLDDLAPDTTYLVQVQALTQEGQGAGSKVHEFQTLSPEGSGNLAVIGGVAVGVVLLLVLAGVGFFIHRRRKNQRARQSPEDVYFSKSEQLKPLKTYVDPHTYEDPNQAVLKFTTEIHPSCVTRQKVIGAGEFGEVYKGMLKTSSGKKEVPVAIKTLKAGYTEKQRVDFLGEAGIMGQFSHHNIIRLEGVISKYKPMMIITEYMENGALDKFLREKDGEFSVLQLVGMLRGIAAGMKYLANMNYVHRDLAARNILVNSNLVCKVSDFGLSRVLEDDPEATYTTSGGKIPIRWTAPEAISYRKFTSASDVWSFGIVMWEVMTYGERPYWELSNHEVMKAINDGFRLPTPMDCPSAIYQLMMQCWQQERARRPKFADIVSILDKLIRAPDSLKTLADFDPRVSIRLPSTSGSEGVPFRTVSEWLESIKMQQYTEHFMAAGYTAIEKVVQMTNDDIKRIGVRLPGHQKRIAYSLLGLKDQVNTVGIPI
Chain of BDNF/NT-3 growth factors receptor (Q16620 whole entry): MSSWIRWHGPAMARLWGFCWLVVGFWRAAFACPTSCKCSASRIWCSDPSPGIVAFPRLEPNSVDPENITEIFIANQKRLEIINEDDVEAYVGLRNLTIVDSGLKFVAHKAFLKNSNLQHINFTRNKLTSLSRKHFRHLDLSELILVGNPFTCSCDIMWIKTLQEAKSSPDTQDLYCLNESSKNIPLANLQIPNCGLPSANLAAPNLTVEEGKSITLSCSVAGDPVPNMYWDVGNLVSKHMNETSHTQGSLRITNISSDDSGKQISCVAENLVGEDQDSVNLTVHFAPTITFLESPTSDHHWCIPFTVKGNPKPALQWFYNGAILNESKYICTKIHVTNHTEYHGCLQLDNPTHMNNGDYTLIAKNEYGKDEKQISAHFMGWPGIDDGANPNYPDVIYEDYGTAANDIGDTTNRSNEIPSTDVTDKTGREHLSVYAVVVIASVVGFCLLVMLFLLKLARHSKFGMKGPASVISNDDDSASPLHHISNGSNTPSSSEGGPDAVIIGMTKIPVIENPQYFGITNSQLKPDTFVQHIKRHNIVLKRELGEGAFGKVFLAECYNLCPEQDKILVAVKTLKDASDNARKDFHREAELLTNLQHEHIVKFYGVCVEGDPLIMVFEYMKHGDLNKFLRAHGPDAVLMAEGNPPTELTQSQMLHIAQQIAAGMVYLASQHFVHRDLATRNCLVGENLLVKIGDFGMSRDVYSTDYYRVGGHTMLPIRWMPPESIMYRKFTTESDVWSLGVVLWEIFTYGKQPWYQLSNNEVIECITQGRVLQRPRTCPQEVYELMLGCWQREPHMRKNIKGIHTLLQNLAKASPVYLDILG
Chain of 5'-AMP-activated protein kinase catalytic subunit alpha-1 (Q13131 whole entry): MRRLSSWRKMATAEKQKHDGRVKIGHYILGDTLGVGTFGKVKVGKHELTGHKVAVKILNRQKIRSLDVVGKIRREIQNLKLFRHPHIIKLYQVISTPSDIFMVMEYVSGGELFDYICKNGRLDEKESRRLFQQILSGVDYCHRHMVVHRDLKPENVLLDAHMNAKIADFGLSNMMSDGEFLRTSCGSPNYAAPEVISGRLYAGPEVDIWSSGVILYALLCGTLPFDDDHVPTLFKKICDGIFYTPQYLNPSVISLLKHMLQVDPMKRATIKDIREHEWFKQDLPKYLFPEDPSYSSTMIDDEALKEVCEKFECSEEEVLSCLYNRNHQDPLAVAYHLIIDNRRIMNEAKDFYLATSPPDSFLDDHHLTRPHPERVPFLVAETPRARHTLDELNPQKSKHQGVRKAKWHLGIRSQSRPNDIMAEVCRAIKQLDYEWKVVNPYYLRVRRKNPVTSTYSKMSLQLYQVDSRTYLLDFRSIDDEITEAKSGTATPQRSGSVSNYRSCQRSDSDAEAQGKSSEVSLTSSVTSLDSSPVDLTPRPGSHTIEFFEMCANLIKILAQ
Chain of Macrophage colony-stimulating factor 1 receptor (P07333 whole entry): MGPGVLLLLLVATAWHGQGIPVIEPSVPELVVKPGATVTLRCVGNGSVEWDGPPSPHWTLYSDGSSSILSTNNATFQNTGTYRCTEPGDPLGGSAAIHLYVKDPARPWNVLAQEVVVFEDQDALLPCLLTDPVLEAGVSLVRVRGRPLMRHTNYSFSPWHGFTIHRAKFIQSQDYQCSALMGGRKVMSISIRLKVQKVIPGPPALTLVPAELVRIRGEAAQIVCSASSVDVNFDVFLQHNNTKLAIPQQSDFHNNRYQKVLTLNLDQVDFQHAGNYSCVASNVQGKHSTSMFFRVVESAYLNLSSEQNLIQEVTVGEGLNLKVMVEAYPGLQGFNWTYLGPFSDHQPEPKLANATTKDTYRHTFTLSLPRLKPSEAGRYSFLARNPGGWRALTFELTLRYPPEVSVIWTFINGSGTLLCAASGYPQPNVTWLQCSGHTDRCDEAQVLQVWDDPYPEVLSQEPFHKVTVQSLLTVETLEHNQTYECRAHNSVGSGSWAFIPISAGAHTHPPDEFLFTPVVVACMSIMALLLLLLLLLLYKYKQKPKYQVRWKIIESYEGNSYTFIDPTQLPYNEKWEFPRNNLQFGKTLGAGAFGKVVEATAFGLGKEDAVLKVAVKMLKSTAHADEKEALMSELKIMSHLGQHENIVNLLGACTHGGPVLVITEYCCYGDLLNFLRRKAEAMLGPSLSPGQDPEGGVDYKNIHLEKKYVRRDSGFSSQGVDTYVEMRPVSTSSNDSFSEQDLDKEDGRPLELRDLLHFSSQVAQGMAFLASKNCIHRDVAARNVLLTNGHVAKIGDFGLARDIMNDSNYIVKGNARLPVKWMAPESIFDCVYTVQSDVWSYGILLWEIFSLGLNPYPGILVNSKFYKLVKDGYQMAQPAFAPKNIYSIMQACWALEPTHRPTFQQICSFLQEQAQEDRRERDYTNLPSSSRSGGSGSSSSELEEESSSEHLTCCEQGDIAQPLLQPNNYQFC
Chain of Protein kinase C iota type (P41743 whole entry): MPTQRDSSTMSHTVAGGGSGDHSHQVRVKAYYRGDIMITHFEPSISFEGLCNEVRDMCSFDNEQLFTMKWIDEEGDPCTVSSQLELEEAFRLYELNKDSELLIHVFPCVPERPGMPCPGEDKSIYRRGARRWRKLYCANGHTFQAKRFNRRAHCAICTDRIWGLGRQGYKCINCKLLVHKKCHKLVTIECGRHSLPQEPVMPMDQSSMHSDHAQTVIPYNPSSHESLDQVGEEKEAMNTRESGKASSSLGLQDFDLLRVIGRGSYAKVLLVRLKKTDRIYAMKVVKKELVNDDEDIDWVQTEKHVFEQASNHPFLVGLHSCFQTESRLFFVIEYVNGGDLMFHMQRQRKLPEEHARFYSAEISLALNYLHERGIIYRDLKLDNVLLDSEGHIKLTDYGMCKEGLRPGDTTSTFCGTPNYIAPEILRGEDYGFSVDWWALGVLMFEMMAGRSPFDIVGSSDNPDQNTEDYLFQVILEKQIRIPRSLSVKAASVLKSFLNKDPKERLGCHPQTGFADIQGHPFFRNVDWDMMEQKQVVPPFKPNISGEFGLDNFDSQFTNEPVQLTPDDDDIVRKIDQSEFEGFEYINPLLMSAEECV
Chain of Proto-oncogene tyrosine-protein kinase Src (P12931 2-536 limits assumed): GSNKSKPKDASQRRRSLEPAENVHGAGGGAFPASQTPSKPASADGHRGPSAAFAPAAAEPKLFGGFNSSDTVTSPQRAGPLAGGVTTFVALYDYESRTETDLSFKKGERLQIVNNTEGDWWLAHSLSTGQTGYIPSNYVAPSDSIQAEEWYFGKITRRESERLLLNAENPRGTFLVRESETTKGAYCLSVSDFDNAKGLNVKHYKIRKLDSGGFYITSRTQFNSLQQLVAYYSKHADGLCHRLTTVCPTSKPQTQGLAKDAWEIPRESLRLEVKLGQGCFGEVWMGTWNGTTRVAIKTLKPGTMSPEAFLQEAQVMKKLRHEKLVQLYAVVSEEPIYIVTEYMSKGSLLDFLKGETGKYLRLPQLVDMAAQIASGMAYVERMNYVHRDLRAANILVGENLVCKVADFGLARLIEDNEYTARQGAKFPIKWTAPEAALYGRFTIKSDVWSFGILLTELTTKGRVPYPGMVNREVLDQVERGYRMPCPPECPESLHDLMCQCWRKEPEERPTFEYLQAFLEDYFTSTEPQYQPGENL

SMILES: NC(=O)Cn1cc(-c2cc(-c3cc4ccccc4s3)c3[nH]ncc3c2)c2nc(N)ncc21
- Ki (Focal adhesion kinase 1): > 1.58 µM (inactive)
- Ki (Ephrin type-A receptor 2): > 3.16 µM (inactive)
- Ki [1]: > 0.631 µM (inactive)
- Ki [2]: 0.398 µM (active)
- Ki [3]: > 5.01 µM (inactive)
- Ki [4]: > 1.58 µM (inactive)
- Ki [5]: 2 µM (active)
- Ki [6]: > 1.58 µM (inactive)
- Ki (Misshapen-like kinase 1): 0.501 µM (active)
- Ki [7]: 0.2 µM (active)
- Ki [8]: 0.1 µM (active)
- Ki [9]: > 2 µM (inactive)
- Ki [10]: 1.26 µM (active)
- Ki [11]: > 10 µM (inactive)
- Ki [12]: 3.16 µM (active)
- Ki [13]: > 1.58 µM (inactive)
- Ki [14]: 1.58 µM (active)
- Ki [15]: 0.631 µM (active)
- Ki [16]: 0.0631 µM (active)
- Ki [17]: 3.16 µM (active)
- Ki [18]: 2 µM (active)
- Ki [19]: > 2.51 µM (inactive)
- Ki [20]: 0.794 µM (active)
- Ki [21]: 0.1 µM (active)
- Ki [22]: > 1.58 µM (inactive)
- Ki [23]: 0.126 µM (active)
- Ki [24]: 5.01 µM (active)
- Ki [25]: 3.98 µM (active)
- Ki [26]: > 1.26 µM (inactive)
- Ki [27]: 3.98 µM (active)
- Ki [28]: > 5.01 µM (inactive)
- Ki [29]: 1.26 µM (active)
- Ki [30]: > 1.26 µM (inactive)
- Ki (Aurora kinase A): 1.26 µM (active)
- Ki [31]: > 2 µM (inactive)
- Ki [32]: 0.00794 µM (active)
- Ki [33]: 2.51 µM (active)
- Ki [34]: > 2 µM (inactive)
- Ki [35]: 1.58 µM (active)
- Ki [36]: 2.51 µM (active)
- Ki [37]: > 2.51 µM (inactive)
- Ki [38]: > 2 µM (inactive)
- Ki [39]: > 2 µM (inactive)
- Ki [40]: 0.0794 µM (active)
- Ki [41]: > 6.31 µM (inactive)
- Ki [42]: > 1.58 µM (inactive)
- Ki [43]: > 5.01 µM (inactive)
